Results on one compound are retold here after patent publication US9132140B2, “Boronic acid derivatives and therapeutic uses thereof” (Rempex Pharmaceuticals, Inc., priority 2013, dated 2015).

The test system of assay [1] is KPM1347 (NDM-1 SHV CTX-M-15). The format is cell-based, Klebsiella pneumoniae. The source says:
(§1) Several strains simultaneously expressing both class A and class B carbapenemases, which were constructed using conjugation, were also included in the panel.

The next assay concerns KP1097 (IMP-1 SHV). The assay is classed as cell-based, Klebsiella pneumoniae.
Source text: as §1

Another assay has as its system KPM1099 (NDM, KPC). The format is cell-based, Klebsiella pneumoniae.
Source text: as §1

The next assay deals with KPM1097 (NDM, KPC). The assay is classed as cell-based, Klebsiella pneumoniae.
Source text: as §1

The test system of a further assay is KP1070 (KPC TEM SHV). The format is cell-based, Klebsiella pneumoniae.
Source text: as §1

For another assay, the system named is EC1061 (NDM-1, CMY-6). The format is cell-based, Escherichia coli.
Source text: as §1

The subject of the next assay is EC1065 (IMP-1 CMY-2). The format is cell-based, Escherichia coli.
Source text: as §1

In assay [2] the test system is EC1064 (NDM-1, CMY-6, CTX-M-15). The assay is classed as cell-based, Escherichia coli.
Source text: as §1

For another assay, the system named is EC1068 (VIM-1). The format is cell-based, Escherichia coli.
Source text: as §1

A further assay concerns ECLM1017 (VIM, KPC). The format is cell-based, Enterobacter cloacae.
Source text: as §1

In another assay the test system is ECLM1019 (VIM, KPC). The format is cell-based, Enterobacter cloacae.
Source text: as §1

The next assay deals with ECL1026 (KPC). The format is cell-based, Enterobacter cloacae.
Source text: as §1

The test system of the next assay is ECL1036 (KPC). The assay is classed as cell-based, Enterobacter cloacae.
Source text: as §1

The next assay relates to ECLM1015 (NDM, KPC). The assay is classed as cell-based, Enterobacter cloacae.
Source text: as §1

The next assay has as its system ECL1082 (VIM-1). The assay is classed as cell-based, Enterobacter cloacae.
Source text: as §1

A further assay relates to ECL1045 (VIM-1). The format is cell-based, Enterobacter cloacae.
Source text: as §1

A further assay deals with ECLM1016 (NDM, KPC). The assay is classed as cell-based, Enterobacter cloacae.
Source text: as §1

In the next assay the test system is ECL1055 (KPC). The assay is classed as cell-based, Enterobacter cloacae.
Source text: as §1

A further assay has as its system ECLM1013 (NDM, KPC). The assay is classed as cell-based, Enterobacter cloacae.
Source text: as §1

The subject of assay [3] is ECL1057 (NDM-1, TEM-1, CTX-M-15). The format is cell-based, Enterobacter cloacae.
Source text: as §1

In another assay the test system is ECLM1018 (VIM, KPC). The format is cell-based, Enterobacter cloacae.
Source text: as §1

Another assay concerns ECLM1014 (NDM, KPC). The assay is classed as cell-based, Enterobacter cloacae.
Source text: as §1

The next assay relates to EA1019 (SHV-5, VIM-1). The assay is classed as cell-based, Enterobacter aerogenes.
Source text: as §1

A further assay has as its system ECM6703 (pUCP24-NDM-1). Description: microbe, parasite or virus in culture. The conditions noted are these: Escherichia coli, read-out: Imipenem MIC Alone. The assay is classed as cell-based, E. coli.

Molecules are shown by their SMILES.

Consider `C[C@@H](O)[C@H]1C(=O)N2C(C(=O)O)=C(SCCN=CN)C[C@H]12` [Imipenem, reference compound], for which the “Carbapenem MIC alone” value in assay [1] was “Z (key: X: MIC of less than 1 μg/mL; Y: MIC of 1 μg/mL to 10 μg/mL; Z: MIC of greater than 10 μg/mL)”; in the assay with KP1097 (IMP-1 SHV) it was “Y (key: X: MIC of less than 1 μg/mL; Y: MIC of 1 μg/mL to 10 μg/mL; Z: MIC of greater than 10 μg/mL)”; in the assay with KPM1099 (NDM, KPC) it was “Z (key: X: MIC of less than 1 μg/mL; Y: MIC of 1 μg/mL to 10 μg/mL; Z: MIC of greater than 10 μg/mL)”; in the assay with KPM1097 (NDM, KPC) it was “Z (key: X: MIC of less than 1 μg/mL; Y: MIC of 1 μg/mL to 10 μg/mL; Z: MIC of greater than 10 μg/mL)”; in the assay on KP1070 (KPC TEM SHV), “Z (key: X: MIC of less than 1 μg/mL; Y: MIC of 1 μg/mL to 10 μg/mL; Z: MIC of greater than 10 μg/mL)”; in the assay with EC1061 (NDM-1, CMY-6), “Y (key: X: MIC of less than 1 μg/mL; Y: MIC of 1 μg/mL to 10 μg/mL; Z: MIC of greater than 10 μg/mL)”. Besides, the “Carbapenem MIC alone” value is on record as “Y (key: X: MIC of less than 1 μg/mL; Y: MIC of 1 μg/mL to 10 μg/mL; Z: MIC of greater than 10 μg/mL)” in the assay with EC1065 (IMP-1 CMY-2); “Z (key: X: MIC of less than 1 μg/mL; Y: MIC of 1 μg/mL to 10 μg/mL; Z: MIC of greater than 10 μg/mL)” in assay [2]; “Y (key: X: MIC of less than 1 μg/mL; Y: MIC of 1 μg/mL to 10 μg/mL; Z: MIC of greater than 10 μg/mL)” in the assay on EC1068 (VIM-1); “Z (key: X: MIC of less than 1 μg/mL; Y: MIC of 1 μg/mL to 10 μg/mL; Z: MIC of greater than 10 μg/mL)” with ECLM1017 (VIM, KPC); “Z (key: X: MIC of less than 1 μg/mL; Y: MIC of 1 μg/mL to 10 μg/mL; Z: MIC of greater than 10 μg/mL)” with ECLM1019 (VIM, KPC); “Y (key: X: MIC of less than 1 μg/mL; Y: MIC of 1 μg/mL to 10 μg/mL; Z: MIC of greater than 10 μg/mL)” in the assay on ECL1026 (KPC). Besides, the “Carbapenem MIC alone” value with ECL1036 (KPC) was “Y (key: X: MIC of less than 1 μg/mL; Y: MIC of 1 μg/mL to 10 μg/mL; Z: MIC of greater than 10 μg/mL)”; in the assay on ECLM1015 (NDM, KPC), “Z (key: X: MIC of less than 1 μg/mL; Y: MIC of 1 μg/mL to 10 μg/mL; Z: MIC of greater than 10 μg/mL)”; in the assay with ECL1082 (VIM-1), “Z (key: X: MIC of less than 1 μg/mL; Y: MIC of 1 μg/mL to 10 μg/mL; Z: MIC of greater than 10 μg/mL)”; with ECL1045 (VIM-1), “Y (key: X: MIC of less than 1 μg/mL; Y: MIC of 1 μg/mL to 10 μg/mL; Z: MIC of greater than 10 μg/mL)”; with ECLM1016 (NDM, KPC) it was “Z (key: X: MIC of less than 1 μg/mL; Y: MIC of 1 μg/mL to 10 μg/mL; Z: MIC of greater than 10 μg/mL)”; with ECL1055 (KPC), “Y (key: X: MIC of less than 1 μg/mL; Y: MIC of 1 μg/mL to 10 μg/mL; Z: MIC of greater than 10 μg/mL)”. For the same compound, the “Carbapenem MIC alone” value with ECLM1013 (NDM, KPC) is “Z (key: X: MIC of less than 1 μg/mL; Y: MIC of 1 μg/mL to 10 μg/mL; Z: MIC of greater than 10 μg/mL)”; in assay [3] it was “Z (key: X: MIC of less than 1 μg/mL; Y: MIC of 1 μg/mL to 10 μg/mL; Z: MIC of greater than 10 μg/mL)”; with ECLM1018 (VIM, KPC) it was “Z (key: X: MIC of less than 1 μg/mL; Y: MIC of 1 μg/mL to 10 μg/mL; Z: MIC of greater than 10 μg/mL)”; in the assay on ECLM1014 (NDM, KPC), “Y (key: X: MIC of less than 1 μg/mL; Y: MIC of 1 μg/mL to 10 μg/mL; Z: MIC of greater than 10 μg/mL)”; with EA1019 (SHV-5, VIM-1), “Z (key: X: MIC of less than 1 μg/mL; Y: MIC of 1 μg/mL to 10 μg/mL; Z: MIC of greater than 10 μg/mL)”. Besides, the MIC in the assay with ECM6703 (pUCP24-NDM-1) is above 1 µg/mL.
